# Laboratory results reported in patent US11135316B2, “Imaging and treatment of pathophysiologic conditions by Cerenkov radiation” (priority 2014, dated 2021).
# Legend:
# HT1080 cells [1] = assay: Lipid peroxidation assay (BODIPY 581/591 C11); assay type: cell-based
# Experimental: BODIPY® 581i591 C11 reagent (Life Technologies Inc.) was used to quantitatively determine the degree of lipid peroxidation. It is a ratiometric fluorescence technique that relies on oxidation of lipids to shift fluorescence emission peak from 590 nm to 510 nm. […] All the compounds were incubated for 6 h at 37° C. Finally, the BODIPY-based dye (10 μM) was added and incubated for 30 min at 37° C. After washing the cells with PBS three times, the plate was analysed using a Synergy HT multimode plate reader (BioTek Instruments Inc., Winooski, USA) with excitation/emission of 581/591 nm for the reduced dye and at 488/510 nm for the oxidized dye. The ratio of the fluorescence intensities at 590/510 nm was plotted to derive the ratio of fluorescence change.
# HT1080 cell line = conditions: expected result of planned assay
# HT1080 tumors = assay type: in vivo, mice; conditions: i.v. with FDG, monitored 15 days
# Excerpt: Tumor volume was registered every alternate day for 15 days.
# cells = conditions: literature; cited from earlier work
# HT1080 cells [2] = system: HT1080 cells
# Experimental: FIG. 7A and FIG. 7B depict the effect of photosensitive particles and radionuclides on cell viability. […] The control group was considered to be 100% viable. […] HT1080 cells were used and the values are means±s.e.m. (experiments for each group were run in triplicates).
# The MTS (3-(4,5-di methylthiazol-2-yl)-5-(3-carboxymethoxyphenyl)-2-(4-sulfophenyl)-2H-tetrazolium) assay, a colorimetric assay for assessing cell viability was performed using the CellTiter 96® AQueous Non-Radioactive Cell Proliferation Assay kit (Promega Co.) according to the manufacturer's instructions.
# [3] = system: mitochondrial membrane potential; assay: Mitochondrial membrane potential assay (Mitotracker Green); assay type: cell-based; conditions: coincubated with FDG
# Experimental: For measuring mitochondrial membrane potential, Mitotracker Green (Life Technologies Inc.) was used according to manufacturer's instructions. Staurosporine (2 μM; Sigma Aldrich Co.) was used as positive control. Fluorescence readout was performed using a plate reader using excitation/emission wavelengths of 490/516 nm.
# HT1080 tumor = conditions: mouse, in vivo
# 4T1 and HT1080 tumor = conditions: mouse, in vivo
# Excerpt: The studies were commenced when tumor volume reached 500 mm^3. […] The animals were euthanized subsequently and major organs dissected and imaged in the same channel. Image J was used to quantitate fluorescence intensity by drawing regions of interest encompassing entire organs.
compound,measurement,setting,value
"Cc1c(C)c2c(c(C)c1O)CCC(C)(C(=O)O)O2 (centres unmarked) [Trolox, reference compound]",effect of peroxyl radical scavenger on lipid peroxidation,HT1080 cells [1]; added to Tc and FDG,adequately inhibited this process
Titanocene dichloride [Tc],"LD50 Tc concentration, fold lower with CR than without FDG",HT1080 cell line,at least 4 fold
same,"tumor volume, fold smaller compared to controls",HT1080 tumors,four-fold
same,concentration known to induce apoptosis in cells,cells,≥ 12500 ng/mL
same,concentration that did not induce apoptosis,HT1080 cells [2],< 10000 ng/mL
same,mitochondrial membrane potential,[3],significant decrease in mitochondrial membrane potential
same,peroxidation of cellular lipids,HT1080 cells [1]; with FDG,induced significant peroxidation and degradation of cellular lipids
"Tf: transferrin, tumor targeting protein; Alexa 680 labeled for biodistribution",tumor to muscle ratio,HT1080 tumor,5.3
same,tumor:muscle ratio,4T1 and HT1080 tumor,5.5
titanium dioxide [TiO2],concentration at which TiO2 particles did not induce apoptosis,HT1080 cells [2],< 0.004 ng/mL
same,concentration that did not induce apoptosis,HT1080 cells [2],< 4000 ng/mL
